Active and inactive are the calls of the source. No rule for the calls is given here.
Columns and labels:
[1] = PubChem AID 1788; conditions: MDS Pharma lead profiling panel, radioligand binding; GABAA central (rat), Muscimol site; at 10 µM; stronger effect = higher value
[2] = test system: Adenosine A3 (human); experiment: PubChem AID 1788; conditions: MDS Pharma lead profiling panel, radioligand binding, at 10 µM, stronger effect = higher value
[3] = test system: Adrenergic a1B (rat); experiment: PubChem AID 1788; conditions: MDS Pharma lead profiling panel, radioligand binding, at 10 µM, stronger effect = higher value
[4] = test system: Androgen (testosterone) AR (rat); experiment: PubChem AID 1788; conditions: MDS Pharma lead profiling panel, radioligand binding, at 10 µM, stronger effect = higher value
[5] = test system: Calcium channel N-type (rat); experiment: PubChem AID 1788; conditions: MDS Pharma lead profiling panel, radioligand binding, at 10 µM, stronger effect = higher value
[6] = target: D(2) dopamine receptor (Homo sapiens) (UniProt P14416); experiment: PubChem AID 1788; conditions: MDS Pharma lead profiling panel, radioligand binding; Dopamine D2S (human); at 10 µM; stronger effect = higher value
[7] = target: Delta-type opioid receptor (Homo sapiens) (UniProt P41143); experiment: PubChem AID 1788; conditions: MDS Pharma lead profiling panel, radioligand binding; Opiate d (OP1, DOP) (human); at 10 µM; stronger effect = higher value
Sequence of Delta-type opioid receptor (Homo sapiens) (P41143 whole entry, looked up): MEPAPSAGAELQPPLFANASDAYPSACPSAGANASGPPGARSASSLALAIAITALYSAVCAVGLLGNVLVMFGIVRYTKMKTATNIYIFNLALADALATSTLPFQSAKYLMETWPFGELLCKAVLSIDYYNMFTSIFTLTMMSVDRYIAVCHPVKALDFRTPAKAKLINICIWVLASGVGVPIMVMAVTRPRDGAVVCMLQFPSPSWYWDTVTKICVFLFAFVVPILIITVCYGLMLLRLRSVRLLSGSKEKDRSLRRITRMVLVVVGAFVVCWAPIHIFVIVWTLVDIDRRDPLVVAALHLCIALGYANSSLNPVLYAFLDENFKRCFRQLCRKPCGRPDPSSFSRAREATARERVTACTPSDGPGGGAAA

[8] = test system: Dopamine D4.2 (human); experiment: PubChem AID 1788; conditions: MDS Pharma lead profiling panel, radioligand binding, at 10 µM, stronger effect = higher value
[9] = test system: Endothelin ETA (human); experiment: PubChem AID 1788; conditions: MDS Pharma lead profiling panel, radioligand binding, at 10 µM, stronger effect = higher value
[10] = target: Estrogen receptor (Homo sapiens) (UniProt P03372); experiment: PubChem AID 1788; conditions: MDS Pharma lead profiling panel, radioligand binding; Estrogen ER a (human); at 10 µM; stronger effect = higher value
Sequence of Estrogen receptor (Homo sapiens) (P03372 whole entry, looked up): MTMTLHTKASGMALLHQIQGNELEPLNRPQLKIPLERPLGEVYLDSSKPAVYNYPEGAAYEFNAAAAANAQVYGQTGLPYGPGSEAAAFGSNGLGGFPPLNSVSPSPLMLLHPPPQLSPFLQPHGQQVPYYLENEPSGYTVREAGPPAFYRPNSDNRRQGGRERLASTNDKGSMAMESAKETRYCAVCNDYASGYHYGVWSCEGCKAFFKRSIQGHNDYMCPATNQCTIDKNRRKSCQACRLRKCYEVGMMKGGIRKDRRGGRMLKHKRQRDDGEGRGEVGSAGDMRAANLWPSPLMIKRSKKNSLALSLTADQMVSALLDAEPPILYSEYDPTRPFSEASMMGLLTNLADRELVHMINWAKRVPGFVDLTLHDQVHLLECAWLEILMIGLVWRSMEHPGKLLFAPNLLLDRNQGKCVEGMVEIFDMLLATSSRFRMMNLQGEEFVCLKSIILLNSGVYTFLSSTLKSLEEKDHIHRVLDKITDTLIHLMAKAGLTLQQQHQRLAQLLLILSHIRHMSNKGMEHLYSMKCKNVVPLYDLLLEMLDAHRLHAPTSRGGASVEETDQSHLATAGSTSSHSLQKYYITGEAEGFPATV

[11] = test system: GABA B1A (human); experiment: PubChem AID 1788; conditions: MDS Pharma lead profiling panel, radioligand binding, at 10 µM, stronger effect = higher value
[12] = target: Glucocorticoid receptor (Homo sapiens) (UniProt P04150); experiment: PubChem AID 1788; conditions: MDS Pharma lead profiling panel, radioligand binding, at 10 µM, stronger effect = higher value
Sequence of Glucocorticoid receptor (Homo sapiens) (P04150 whole entry, looked up): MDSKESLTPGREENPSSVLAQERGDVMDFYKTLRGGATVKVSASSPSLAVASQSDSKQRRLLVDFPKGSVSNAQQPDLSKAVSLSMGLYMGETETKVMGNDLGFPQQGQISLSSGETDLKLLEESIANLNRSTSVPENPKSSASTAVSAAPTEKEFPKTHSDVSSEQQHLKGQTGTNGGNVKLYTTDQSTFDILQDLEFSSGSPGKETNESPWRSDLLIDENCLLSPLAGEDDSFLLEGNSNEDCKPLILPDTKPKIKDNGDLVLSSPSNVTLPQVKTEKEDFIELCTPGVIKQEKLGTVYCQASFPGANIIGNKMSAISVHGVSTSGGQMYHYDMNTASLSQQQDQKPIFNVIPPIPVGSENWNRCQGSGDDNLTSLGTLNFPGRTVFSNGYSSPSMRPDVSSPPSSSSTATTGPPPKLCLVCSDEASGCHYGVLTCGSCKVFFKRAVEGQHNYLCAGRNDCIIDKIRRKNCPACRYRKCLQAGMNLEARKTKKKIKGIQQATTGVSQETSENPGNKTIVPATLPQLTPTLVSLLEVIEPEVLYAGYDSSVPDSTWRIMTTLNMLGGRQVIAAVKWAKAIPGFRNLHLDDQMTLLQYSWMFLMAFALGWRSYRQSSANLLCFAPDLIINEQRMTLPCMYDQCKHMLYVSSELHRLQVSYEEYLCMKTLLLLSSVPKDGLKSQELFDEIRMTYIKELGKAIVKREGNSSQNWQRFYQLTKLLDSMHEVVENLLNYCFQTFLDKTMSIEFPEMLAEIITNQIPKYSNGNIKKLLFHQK

[13] = target: Kappa-type opioid receptor (Homo sapiens) (UniProt P41145); experiment: PubChem AID 1788; conditions: MDS Pharma lead profiling panel, radioligand binding; Opiate k (OP2, KOP) (human); at 10 µM; stronger effect = higher value
Sequence of Kappa-type opioid receptor (Homo sapiens) (P41145 whole entry, looked up): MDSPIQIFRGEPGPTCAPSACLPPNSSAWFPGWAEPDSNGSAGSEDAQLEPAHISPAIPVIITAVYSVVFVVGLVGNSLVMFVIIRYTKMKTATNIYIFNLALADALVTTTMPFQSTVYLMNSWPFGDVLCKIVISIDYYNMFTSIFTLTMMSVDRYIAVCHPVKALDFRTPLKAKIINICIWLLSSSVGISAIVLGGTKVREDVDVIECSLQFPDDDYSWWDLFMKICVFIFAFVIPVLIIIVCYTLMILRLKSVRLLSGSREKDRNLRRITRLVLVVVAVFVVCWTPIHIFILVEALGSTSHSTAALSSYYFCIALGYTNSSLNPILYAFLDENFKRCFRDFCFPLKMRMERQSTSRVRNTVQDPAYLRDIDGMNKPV

[14] = target: Mu-type opioid receptor (Homo sapiens) (UniProt P35372); experiment: PubChem AID 1788; conditions: MDS Pharma lead profiling panel, radioligand binding; Opiate m (OP3, MOP) (human); at 10 µM; stronger effect = higher value
Sequence of Mu-type opioid receptor (Homo sapiens) (P35372 whole entry, looked up): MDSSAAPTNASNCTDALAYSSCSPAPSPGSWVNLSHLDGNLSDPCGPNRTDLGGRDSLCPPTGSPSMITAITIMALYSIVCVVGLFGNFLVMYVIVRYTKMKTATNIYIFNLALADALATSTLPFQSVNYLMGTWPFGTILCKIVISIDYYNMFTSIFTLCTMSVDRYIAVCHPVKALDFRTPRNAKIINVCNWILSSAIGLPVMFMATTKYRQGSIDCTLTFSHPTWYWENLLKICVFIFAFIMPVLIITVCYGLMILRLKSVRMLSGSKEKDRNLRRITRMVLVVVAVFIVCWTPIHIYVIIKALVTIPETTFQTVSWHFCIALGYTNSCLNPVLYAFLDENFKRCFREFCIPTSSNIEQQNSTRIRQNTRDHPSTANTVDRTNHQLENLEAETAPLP

[15] = target: Muscarinic acetylcholine receptor M1 (Homo sapiens) (UniProt P11229); experiment: PubChem AID 1788; conditions: MDS Pharma lead profiling panel, radioligand binding, at 10 µM, stronger effect = higher value
Sequence of Muscarinic acetylcholine receptor M1 (Homo sapiens) (P11229 whole entry, looked up): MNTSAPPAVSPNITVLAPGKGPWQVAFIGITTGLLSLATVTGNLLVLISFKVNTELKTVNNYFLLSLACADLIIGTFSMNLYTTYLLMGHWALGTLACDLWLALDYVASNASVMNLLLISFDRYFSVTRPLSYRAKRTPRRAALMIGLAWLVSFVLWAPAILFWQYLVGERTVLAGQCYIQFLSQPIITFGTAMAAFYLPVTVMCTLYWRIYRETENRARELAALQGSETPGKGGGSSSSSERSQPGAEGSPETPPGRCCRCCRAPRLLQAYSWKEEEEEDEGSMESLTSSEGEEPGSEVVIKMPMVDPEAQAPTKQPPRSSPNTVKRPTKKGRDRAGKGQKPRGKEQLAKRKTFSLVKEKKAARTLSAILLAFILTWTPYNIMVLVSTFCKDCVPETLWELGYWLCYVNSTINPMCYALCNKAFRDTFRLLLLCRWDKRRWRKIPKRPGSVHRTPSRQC

[16] = target: Muscarinic acetylcholine receptor M2 (Homo sapiens) (UniProt P08172); experiment: PubChem AID 1788; conditions: MDS Pharma lead profiling panel, radioligand binding, at 10 µM, stronger effect = higher value
Sequence of Muscarinic acetylcholine receptor M2 (Homo sapiens) (P08172 whole entry, looked up): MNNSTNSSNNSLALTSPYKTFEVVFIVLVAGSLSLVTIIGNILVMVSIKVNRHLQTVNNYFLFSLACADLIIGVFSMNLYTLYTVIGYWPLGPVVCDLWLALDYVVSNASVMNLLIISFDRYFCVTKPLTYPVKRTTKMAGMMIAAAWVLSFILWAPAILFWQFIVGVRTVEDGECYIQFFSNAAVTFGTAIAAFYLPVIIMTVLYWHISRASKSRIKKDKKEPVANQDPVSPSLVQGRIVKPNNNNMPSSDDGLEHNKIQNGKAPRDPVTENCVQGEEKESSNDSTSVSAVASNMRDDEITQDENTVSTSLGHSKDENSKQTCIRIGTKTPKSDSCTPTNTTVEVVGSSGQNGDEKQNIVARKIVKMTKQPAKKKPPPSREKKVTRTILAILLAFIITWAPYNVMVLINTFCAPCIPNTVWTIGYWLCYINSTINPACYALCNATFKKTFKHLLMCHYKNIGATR

[17] = target: Neuropeptide Y receptor type 1 (Homo sapiens) (UniProt P25929); experiment: PubChem AID 1788; conditions: MDS Pharma lead profiling panel, radioligand binding; Neuropeptide Y Y1 (human); at 10 µM; stronger effect = higher value
Sequence of Neuropeptide Y receptor type 1 (Homo sapiens) (P25929 whole entry, looked up): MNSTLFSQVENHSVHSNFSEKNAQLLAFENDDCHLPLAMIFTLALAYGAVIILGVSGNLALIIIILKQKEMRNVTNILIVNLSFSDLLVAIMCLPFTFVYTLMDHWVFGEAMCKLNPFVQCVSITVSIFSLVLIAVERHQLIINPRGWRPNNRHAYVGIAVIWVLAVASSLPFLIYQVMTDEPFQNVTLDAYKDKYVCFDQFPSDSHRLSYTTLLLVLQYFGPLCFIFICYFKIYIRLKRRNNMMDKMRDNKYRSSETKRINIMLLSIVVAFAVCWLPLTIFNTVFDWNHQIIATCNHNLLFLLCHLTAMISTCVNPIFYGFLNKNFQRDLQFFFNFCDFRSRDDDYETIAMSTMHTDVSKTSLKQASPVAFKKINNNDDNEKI

[18] = test system: Nicotinic Acetylcholine (human); experiment: PubChem AID 1788; conditions: MDS Pharma lead profiling panel, radioligand binding, at 10 µM, stronger effect = higher value
[19] = target: Potassium Channel K ATP (hamster) (UniProt P49658); experiment: PubChem AID 1788; conditions: MDS Pharma lead profiling panel, radioligand binding, at 10 µM, stronger effect = higher value
[20] = test system: Prostanoid EP4 (human); experiment: PubChem AID 1788; conditions: MDS Pharma lead profiling panel, radioligand binding, at 10 µM, stronger effect = higher value
[21] = test system: Purinergic P2Y (rat); experiment: PubChem AID 1788; conditions: MDS Pharma lead profiling panel, radioligand binding, at 10 µM, stronger effect = higher value
[22] = test system: Sigma s2 (rat); experiment: PubChem AID 1788; conditions: MDS Pharma lead profiling panel, radioligand binding, at 10 µM, stronger effect = higher value
[23] = test system: Sodium Channel, Site 2 (rat); experiment: PubChem AID 1788; conditions: MDS Pharma lead profiling panel, radioligand binding, at 10 µM, stronger effect = higher value
[24] = test system: Tachykinin NK1 (human); experiment: PubChem AID 1788; conditions: MDS Pharma lead profiling panel, radioligand binding, at 10 µM, stronger effect = higher value
[25] = test system: Vesicular inhibitory amino acid transporter (Rattus norvegicus) + Pro-epidermal growth factor (Homo sapiens) + Acetylcholine receptor subunit alpha (Homo sapiens) + Estrogen receptor (Homo sapiens) + Glucocorticoid receptor (Homo sapiens) + Sodium channel protein type 1 subunit alpha (Rattus norvegicus) + Beta-2 adrenergic receptor (Homo sapiens) + Muscarinic acetylcholine receptor M2 (Homo sapiens) + Beta-1 adrenergic receptor (Homo sapiens) + 5-hydroxytryptamine receptor 1A (Homo sapiens) + Alpha-2A adrenergic receptor (Homo sapiens) + Muscarinic acetylcholine receptor M1 (Homo sapiens) + Interleukin-1 receptor type 1 (Mus musculus) + D(2) dopamine receptor (Homo sapiens) + Androgen receptor (Rattus norvegicus) + Gamma-aminobutyric acid receptor subunit gamma-2 (Rattus norvegicus) + Muscarinic acetylcholine receptor M3 (Homo sapiens) + D(1A) dopamine receptor (Homo sapiens) + D(4) dopamine receptor (Homo sapiens) + Glutamate receptor ionotropic, kainate 1 (Rattus norvegicus) + Sodium-dependent noradrenaline transporter (Homo sapiens) + Endothelin receptor type B (Homo sapiens) + Alpha-1D adrenergic receptor (Homo sapiens) + Endothelin-1 receptor (Homo sapiens) + Substance-P receptor (Homo sapiens) + Neuropeptide Y receptor type 1 (Homo sapiens) + Adenosine receptor A2a (Homo sapiens) + B2 bradykinin receptor (Homo sapiens) + Adenosine receptor A1 (Homo sapiens) + Sodium-dependent serotonin transporter (Homo sapiens) + Neuronal acetylcholine receptor subunit alpha-3 (Homo …; experiment: PubChem AID 1788; conditions: MDS Pharma lead profiling panel, radioligand binding; at 10 µM; stronger effect = higher value
[26] = target: Voltage-gated inwardly rectifying potassium channel KCNH2 (Homo sapiens) (UniProt Q12809); experiment: PubChem AID 1788; conditions: MDS Pharma lead profiling panel, radioligand binding; Potassium Channel hERG (human); at 10 µM; stronger effect = higher value
Sequence of Voltage-gated inwardly rectifying potassium channel KCNH2 (Homo sapiens) (Q12809 whole entry, looked up): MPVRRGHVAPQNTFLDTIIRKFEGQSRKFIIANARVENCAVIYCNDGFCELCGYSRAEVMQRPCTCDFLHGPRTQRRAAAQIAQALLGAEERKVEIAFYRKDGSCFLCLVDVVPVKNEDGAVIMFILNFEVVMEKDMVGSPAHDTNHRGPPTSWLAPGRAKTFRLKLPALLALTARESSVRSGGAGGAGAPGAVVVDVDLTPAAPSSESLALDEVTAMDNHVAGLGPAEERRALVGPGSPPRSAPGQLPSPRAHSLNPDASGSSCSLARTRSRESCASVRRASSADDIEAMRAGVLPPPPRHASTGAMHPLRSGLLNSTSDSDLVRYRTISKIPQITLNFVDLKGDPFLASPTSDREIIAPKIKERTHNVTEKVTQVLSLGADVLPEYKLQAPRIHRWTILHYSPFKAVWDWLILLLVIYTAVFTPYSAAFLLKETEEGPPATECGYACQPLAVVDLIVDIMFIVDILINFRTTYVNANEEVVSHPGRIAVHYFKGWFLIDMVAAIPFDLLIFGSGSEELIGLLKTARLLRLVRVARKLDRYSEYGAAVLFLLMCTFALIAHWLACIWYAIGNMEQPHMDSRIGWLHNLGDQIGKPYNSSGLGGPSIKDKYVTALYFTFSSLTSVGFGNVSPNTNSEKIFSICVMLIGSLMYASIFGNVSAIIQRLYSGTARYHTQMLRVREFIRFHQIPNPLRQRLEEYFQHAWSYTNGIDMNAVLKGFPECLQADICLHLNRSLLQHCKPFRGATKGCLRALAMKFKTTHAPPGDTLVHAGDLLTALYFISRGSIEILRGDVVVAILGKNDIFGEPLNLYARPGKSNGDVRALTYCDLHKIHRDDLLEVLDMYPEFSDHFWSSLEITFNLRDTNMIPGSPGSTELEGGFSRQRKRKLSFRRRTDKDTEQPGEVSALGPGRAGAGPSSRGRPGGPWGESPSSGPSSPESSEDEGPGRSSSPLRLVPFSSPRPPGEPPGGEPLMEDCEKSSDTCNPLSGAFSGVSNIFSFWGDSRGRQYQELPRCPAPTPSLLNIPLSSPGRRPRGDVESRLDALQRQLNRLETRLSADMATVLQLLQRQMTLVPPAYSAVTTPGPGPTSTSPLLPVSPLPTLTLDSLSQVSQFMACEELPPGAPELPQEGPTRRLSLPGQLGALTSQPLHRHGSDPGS

Measured: inhibition

CCOC(=O)N1CCC(NCCNC(=O)c2ccccc2C)CC1
inactive: [1] 7% | [2] 7% | [3] 20% | [4] -2% | [5] 8% | [6] 29% | [7] -7% | [8] 52% | [9] 8% | [10] 5% | [11] -22% | [12] -8% | [13] -2% | [14] -4% | [15] 19% | [16] 1% | [17] 0% | [18] 2% | [19] -9% | [20] 3% | [21] -2% | [22] 44% | [23] -7% | [24] -8% | [25] -8% | [26] 1%

Source: PubChem BioAssay AID1788 (Vanderbilt High Throughput Screening Facility, 2009)
